The values that follow come from a melting point compilation (Tetko et al.; mined from patent text by program, amines drawn as free bases though some values may be those of a salt).

A word on the melting point: it is the temperature, or range, at which the solid turns liquid.

Molecule `Cn1c(=O)c(C(=O)NC2CCCCC2)c(Cl)c2cc(O)ccc21` returned a melting point of 186 °C.
Take `CCCC(=O)c1ccc(OCCCCCC(=O)O)c(Cl)c1Cl`: the melting point fell in the range of 94 to 95 °C.
The molecule `O=C(Nc1cccc(Br)c1)Oc1ccc2c(c1)CCCN2` gave a melting point of 198 °C.
`CC(C)c1nc2c(nc1C(C)C)-c1c(c(-c3ccc(C(=O)O)cc3)cn1Cc1cccnc1)CC2` showed a melting point of 100 to 102 °C.
Next, `Cn1cc(-c2cncc(OC3SCC(O)C(O)C3O)c2)cn1` (stereo not drawn): 216 °C; `N#Cc1cc(O)c(O)c(C#N)c1CCC(=O)O`: 210 to 220 °C; `COC(=O)c1ccc(OC)cc1NC(C)=O`: 123 to 126 °C.
Next, `CNC(=O)CN1CCC2=C(C1)c1c(O)cc(C(C)C)cc1OC2(C)C`: 178 to 190 °C; `CC(C)(C)c1n[nH]c2c1C(C1CCCCC1)N(c1ccc(-c3ccon3)cc1)C2=O` (stereo not drawn): 251 to 252 °C; `O=C(OCc1ccccc1)[C@H](Cc1ccc(-c2ccccc2)cc1)NCP(=O)(Oc1ccccc1)Oc1ccccc1`: 85 to 86 °C.
`O=C1CC(c2cccc(-n3ccnn3)c2)=Nc2ccc(-c3cc(F)ccc3F)cc2N1` had a melting point of 231 °C.
Take `COC(=O)COc1ccc(NC(=O)c2cc(C(C)C)c(C(C)C)o2)cc1`: the melting point is 104 to 105 °C.
Molecule `CCn1c(=O)c2[nH]c(/C=C/c3ccc(OC)c(OC)c3)nc2n(CC)c1=O` registered a melting point of 208 to 211 °C.
`CCCCNc1cc(Cl)c(S(C)(=O)=O)cc1C(=O)O` gave a melting point of 187 to 189 °C.
`COc1cc2ncnc(Oc3cccc(Cl)c3)c2cc1OC` came in with a melting point of 152 to 153 °C.
Next, `O=c1cc(NCCN2CCN(c3ncccn3)CC2)cn[nH]1`: 199 to 201 °C.
Then `CCn1c2ccccc2c(=NN=C2NCCS2)c2ccccc21`, with 187 to 188 °C; and `N#CC1(Nc2ccccc2)CCCCC1`, with 67 to 69 °C; and `CCOCc1c2ccccc2cc2ccccc12`, with 74 to 75 °C.
`CCCCCCCCCCCCCCCCCCOCCOCCO` returned a melting point of 45 to 46 °C.
Then `CC(=O)N1CCN(CCOc2cc(OC(C)C)c3c(Nc4c(Cl)cnc5c4OCO5)ncnc3c2)CC1`, with 208 to 210 °C; and `Nc1c(F)c(F)cc(C(=O)O)c1F`, with 133 to 136 °C.
Next, `CCOC(=O)[C@@H](NC(=O)[C@H](CC(C)C)NC(=O)OC(C)(C)C)[C@@H](C)O`: 67 to 70 °C.
Take `Cc1ccc(S(=O)(=O)N2CCCC(CSc3ccccc3)C2)cc1` (stereo not drawn): the melting point was 66.7 °C.
Next, `CC1(C)CC(=O)c2c(ncc3[nH]c4ccccc4c23)C1`: 224 to 225 °C.
Next, `Cc1cc(C)nc(NC(N)=Nc2ccc(Cl)cc2)n1`: 203 °C; `Fc1ccc(-c2cc(Cn3cnc4c(Cl)nc5ccccc5c43)on2)cc1`: 219 to 220 °C; `O=C1c2ccc([N+](=O)[O-])cc2C(=O)N1C1CCN(Cc2ccccc2)CC1`: 240 to 242 °C.
For `CCCc1c(CSc2nnc(NC(=O)CC(=O)OCc3ccc(OC)cc3)s2)ccc(C(C)=O)c1O`, the melting point was 162 to 166 °C.
For the molecule `CCSc1ccc(NC(=S)NC(=O)OC)c([N+](=O)[O-])c1`, the melting point is 152 °C.
Next, `COc1ccc2c(c1)OC(CN1CC=C(c3c[nH]c4ccccc34)CC1)CO2` (stereo not drawn): 166 to 168 °C; `O=c1c2ncn(C3OC(COC(c4ccccc4)(c4ccccc4)c4ccccc4)C(O)C3O)c2ncn1Cc1ccccc1` (stereo not drawn): 208 to 209 °C.
`CC(C(=O)O)c1ccc(OCCNC(=O)C2Cc3ccccc3N2S(=O)(=O)c2ccc(-c3cc(C(F)(F)F)ccc3Cl)cc2)cc1` (stereo not drawn) returned a melting point of 91 to 100 °C.
`Cc1cc(C)c2c(=O)c([N+](=O)[O-])coc2c1`: the melting point was in the range of 120 to 125 °C.
Then `CCOC(=O)Nc1c(C)cc(Cl)cc1C(=O)O`, with 124 to 126 °C; and `O=Cc1c(O)ccc2c1OCCO2`, with 62 to 63 °C.
Next, `Nc1ncnc2c1nnn2[C@@H]1C[C@H](CO)[C@@H](O)[C@@H]1F`: 214 to 216 °C; `CC1(C)CC(CS(=O)(=O)NCC(=O)O)c2cc(OCc3ccccc3)ccc2O1` (stereo not drawn): 131 °C; `Cc1cc(C(O)(COc2ccc(Cl)cc2)C(F)(F)F)ccc1NC(=O)c1cccc(I)c1C(=O)NC(C)C` (stereo not drawn): 90 to 95 °C.
Next, `CCCCOCCCNC(=O)c1cnc(C(=O)NCC(=O)OCCCC)c(OC)c1`: 115 to 117 °C; `CCCCCCCc1ccc(C(=O)Nc2ccc(C(=O)NN=C3C(=O)Nc4ccc(I)cc43)cc2)cc1`: 306 °C; `O=C(O)Cc1ccc(O)c(OCc2ccccc2)c1`: 130 to 133 °C.
`O=c1c2ccccc2ccn2c(SC(F)(F)F)ccc12` registered a melting point of 137 to 138 °C.
In turn, `CN(CC(N)=O)C(=O)CCl` displayed a melting point of 85 to 86 °C.
Next, `COc1ccc(-c2c(C=O)ccc3cc(OC)ccc23)cc1`: 99 to 101 °C; `COc1ccc2c(c1)C(C(=O)N(Cc1ccc(OCC(F)(F)F)cc1)c1ccc(C(C)C)cc1)CCC2` (stereo not drawn): 125 to 127 °C.
`Cc1nc(-c2ccc(O)cc2)[nH]c1Br` came in with a melting point of 205 to 212 °C.
Turning to `OCC1OC(SCCCc2ccccc2)C(O)C(O)C1O` (stereo not drawn), the melting point was 122 to 123 °C.
As for `O=C(Oc1c(F)c(F)c(F)c(F)c1F)[C@H]1CCC(=O)N1C(=O)OCc1ccccc1`, the melting point was 81 to 82 °C.
Next, `Cc1ccc(C)c(NC(=O)N2CCC(C#N)CC2)c1`: 187 to 190 °C; `CC(C)c1cccc(C(C)C)c1NC(=S)C1c2ccccc2COc2ccc(Br)cc21` (stereo not drawn): 190 to 191 °C.
On to `O=C(O)COc1ccc(-c2noc3ccccc23)c(Cl)c1Cl`, for which the melting point fell in the range of 166 to 167 °C.
Next, `CC(C)CCCC(C)C1CC=C2C3=C(CCC21C)C1(C)CCC(C(=O)c2ccncc2)CC1CC3` (stereo not drawn): 129 to 131 °C; `CCOC(=O)C(=CC=C(SC)C(=O)c1ccc(O)c(O)c1)N(C)C`: 144 °C; `Cc1ccc(C2(n3ccnc3)c3ccccc3C(=O)c3ccccc32)cc1`: 200 to 204 °C.
Turning to `O=c1c(-c2ccc(O)cc2)coc2ccccc12`, the melting point lay within 237 to 238 °C.
In the case of `CCn1cc(CCC(=O)O)c2ccccc21`, the melting point was 50 °C.
Then `CN1CCC(C2(O)c3cc(Cl)ccc3CC2(C)C)CC1` (stereo not drawn), with 181 to 182 °C.
Then `COc1cc(-c2cc(C(F)(F)F)nn2-c2ccc(S(C)(=O)=O)cc2)ccc1-c1cscn1`, with 164 to 166 °C.
For `CCOc1ccc(C2=NN(C(CC)CCCCC(=O)O)C(=O)C3CCCCC23)cc1OCC` (stereo not drawn), the melting point lay in the range of 90 to 91 °C.
Then `CCOCc1ncc[nH]1`, with 205 to 206 °C; and `CC(C)C(NC(=O)C(Cc1ccccc1)NC(=O)c1ccc(NS(=O)(=O)c2ccc(C(C)(C)C)cc2)cc1)C(=O)Nc1n[nH]c(=S)s1` (stereo not drawn), with 140 to 144 °C; and `O=C1C2=CSCCN2C(=O)N1c1cccc(Cl)c1F`, with 118 to 120 °C.
Then `CON=C(C(=O)O)c1csc(NC(=O)OCC(Cl)(Cl)Cl)n1`, with 162 to 163 °C; and `CCOC(=O)CCCC(=O)c1ccc(OCCCCCBr)c(CCC(=O)OCC)c1`, with 48 to 49 °C.
Then `COc1cc2c(cc1Br)-c1c(Cl)c3c(n1CC2)C(=O)N(C(C)(C)C)CCCC3`, with 203 to 205 °C; and `C=C(CC)C(=O)c1ccc(OC(C)(C)C(=O)O)c(Cl)c1Cl`, with 88 to 89 °C.
`Cc1nccn1-c1nc(-c2ccc(Cl)cc2)c(CCCC2=NCCO2)o1` returned a melting point of 88 to 89 °C.
Then `O=C(NCCO)/C(=C/c1ccc(OC2CC2)cc1)NC(=O)c1ccc(OCCC2CC2)cc1`, with 132 to 134 °C.
Next, `CC1=CC(C)(C)Nc2ccc3c(c21)C(=C1SCCCS1)Oc1ccc(F)cc1-3`: 120 to 122 °C.
Then `O=C(c1ccc(O)cc1)c1c(-c2ccccc2)sc2cc(O)ccc12`, with 245 to 246 °C; and `CC1(C)CC(=O)C(C(=O)Nc2cccc([N+](=O)[O-])c2)C(=O)O1` (stereo not drawn), with 138 to 140 °C; and `CCOC(=O)c1cc2c3n(ccc-2n1)CC(CCl)=N3`, with 270 to 272 °C.
`CNC(=O)N1N=C(c2ccc([N+](=O)[O-])cc2)c2cc(Cl)ccc2CC1C` (stereo not drawn) registered a melting point of 190 to 192 °C.
Then `Cc1ccc(S(=O)(=O)C=CC#N)cc1NS(=O)(=O)c1ccc2ccccc2c1`, with 214 to 216 °C; and `NC(=O)c1ccc(-c2cccc(N)c2)cc1`, with 206 to 208 °C; and `CNC(=O)NN(CC(=O)OC)c1cccc(OC)c1`, with 145 to 146 °C.
In turn, `CCC(CC)(CC)C(=O)O[C@H]1CCC=C2C=C[C@H](C)[C@H](CC[C@@H]3C[C@@H](O)CC(=O)O3)[C@H]21` showed a melting point of 65 to 68 °C.
Then `O=C(O)c1ccc(C=Cc2cc3ccccc3s2)s1`, with 236 to 237 °C; and `O=C(c1ccc(Cl)c(Cl)c1)N1CCCC(c2cc(Br)cc(Br)c2)=N1`, with 179 to 182 °C.
Then `COc1cc2ncnc(N3CCC(C(C)(O)COS(=O)(=O)c4ccc(C)cc4)CC3)c2cc1OC` (stereo not drawn), with 120 to 124 °C; and `COc1cc(C(=O)O)ccc1Cc1cccc2ccc(CCCCC(=O)N(C)C)cc12`, with 125 to 127 °C; and `Cc1ccccc1OC(=O)N1CCCC1=O`, with 85 to 87 °C.
Then `CCOc1cc(OCc2ccccc2OCc2nc(-c3ccccc3)oc2C)ccc1CCC(=O)O`, with 112 to 113 °C.
Consider `COCCNC(=O)c1cc(F)cc(-c2cccc3cc(Cc4cccc(C(F)(F)F)c4)sc23)c1`, for which the melting point lay in the range of 103 to 104 °C.
Next, `CC(=O)NCn1cc(-c2nc(Nc3ccccn3)sc2C)cn1`: 175 °C.
Then `Cc1cccc(NC(=O)NC2N=C(C3CC3)c3cccc(C)c3N(CC(=O)N3CCCCCCC3)C2=O)c1` (stereo not drawn), with 178 to 179 °C; and `CC(C)CNc1c(N)c2nnnn2c2cnccc12`, with 203 to 204 °C.
